Legend:
Assay type in all cases: cell-based
[1] = test system: Nrf2 target genes, including GCLC, HMOX1, OSGIN1 and NQO1; assay: Gene expression (RT-PCR) in cultured human astrocytes; conditions: human astrocytes treated with increasing concentrations for 20 hours
Description: (§1) Human astrocytes from ScienCell (cat #1820) were grown in astrocyte medium per supplier's instructions. Cells cultured for no more than two passages were plated in 96-well plates at 40,000 cells per well for gene transcription experiments and 20,000 cells per well for glutathione and cytoprotection assays.
Primary cultures of human spinal cord astrocytes were treated with compound for 20 hours. The cells were then rinsed in PBS, lysed, and processed for RNA using Ambion Taqman™ Cells-to-CT kit. The resulting cDNA was stored at −20° C. until analysis by real-time polymerase chain reaction (RT-PCR). The cDNA mixture from Cells-to-CT was diluted 5× before loading into PCR. This yields results similar to using 6 ng of purified cDNA. RT-PCR was performed on Life Technologies QuantStudio platform using OpenArray technique according to manufacturer's protocol using the following Taqman primers: […]
The comparative CT method was used to calculate fold changes using ThermoFisher Cloud software for PCR analysis. Samples were compared to vehicle control.

human astrocytes [2] = assay: Glutathione assay in cultured human astrocytes; conditions: 20-hr exposure, FIG. 2
Description: as §1
Intracellular glutathione was measured after a 20-hr exposure to test compounds by a two-step process. First, cells were lysed and luciferin quantitatively generated from substrate, catalyzed by glutathione-S-transferase in the presence of analyte glutathione. Then luciferin was assayed using stabilized luciferase to produce a luminescent signal proportional to the concentration of glutathione (Promega GSH-Glo, cat #V6912).

human astrocytes [3] = assay: Cytoprotection of human astrocytes from sodium arsenite; conditions: compound 20 hrs before 25 μM sodium arsenite, then 22 hrs, FIG. 3
Description: Human astrocytes from ScienCell (cat #1820) were grown in astrocyte medium per supplier's instructions. Cells cultured for no more than two passages were plated in 96-well plates at 40,000 cells per well for gene transcription experiments and 20,000 cells per well for glutathione and cytoprotection assays. Astrocytes were treated for 20 hrs as above, then the medium was removed and replaced with serum- and supplement-free growth medium with and without 25 μM sodium arsenite. After 22 hrs., cells were washed with PBS, fixed with 4% paraformaldehyde/4% sucrose in PBS, stained with 4′,6-Diamidino-2-phenylindole dihydrochloride (DAPI) and counted by quantitative fluorescence microscopy.

## CC1(C)C(=O)C(C#N)=C[C@]2(C)C[C@](O)(c3ccccc3)CC[C@H]12 [Compound 24, (4aS,7S,8aS)-7-hydroxy-4,4,8a-trimethyl-3-oxo-7-phenyl-4a,5,6,8-tetrahydronaphthalene-2-carbonitrile]
[1]; FIG. 1A
  transcription of GCLC: induces transcription
[1]; FIG. 1B
  transcription of HMOX1: induces transcription
[1]; FIG. 1C
  transcription of OSGIN1: induces transcription
[1]; FIG. 1D
  transcription of NQO1: induces transcription
Human astrocytes [2]
  intracellular glutathione: increases
Human astrocytes [3]
  protection from oxidative stress-induced cell death: protects

Source: patent US11465963B2, “Tetrahydronaphthalene derivatives useful as Nrf2 activators” (BIOGEN MA INC., priority 2017, dated 2022)
